Values joined by “and” are separate entries in the source; they are usually repeats but may differ in a detail not shown here. Equal values may be shown once. Read-outs that look alike come from different tables or passages of the source.
Tests used:
[1] = test system: mice; experiment: acute toxicity (LD50) after one-time intravenous administration to mice; type: in vivo, mouse (NMRI (SPF)); settings: mice (NMRI), 2 ml/minutes, deaths up to 7 days
Protocol: Study of acute toxicity (LD50) after one-time intravenous administration to mice
The contrast medium to be tested was administered to the mice in individual restraining cages (strain: NMRI (SPF); cultivator: Schering; average weight: 20 g; same sex distribution) into one of the caudal veins at a rate of 2 ml/minutes and at different dosage levels. The number of animals that died up to a fixed time was determined (3 hours, 24 hours, 3 days and 7 days).

[2] = density values of samples measured in a water phantom in a computer tomograph (137 kV, 100 mA); type: physicochemical
Protocol: 3,6,9-Triaza-3,6,9-tris-(carboxymethyl)-4-(4-ethoxybenzyl)-undecanedioic acid
Disodium salt was complexed with different X-ray-absorbing metal ions and then in the case of differing concentration, the density values of the samples were measured in a water phantom since it approximately corresponded in dimensions to those of a human abdomen.

[3] = test system: liver; settings: human, maximum compatible dose corresponding to about 7 g of iodine/70 kg; cited from earlier work
[4] = test system: liver; settings: cited from earlier work; for concentration in the liver (fold), at 50 μg of iodine/ml: 50 μg of iodine/ml of plasma; for concentration in the liver versus plasma, at 500 μg of iodine/ml: 500 μg of iodine/ml of plasma
[5] = humans; cited from earlier work
[6] = test system: liver metastases; experiment: liver CT of human patients with known liver metastases (Example 19); type: in vivo
Protocol: Gd-EOB-DTPA ([…]) was administered intravenously in an intravenous drip in the arm vein. The infusion time was 20 minutes for the dosages of 0.2 and 0.35 mmol/kg and 30 minutes for the maximum dose of 0.5 mmol/kg. […] Exclusion criteria for the patients were: […] The entire liver was measured within 20-30 seconds of a pause in breathing. The table feed rate was 8 mm/sec, the collimation 8 mm. Using a basis of pre-contrast and post-contrast images, two independent observers evaluated the number and size of the metastases qualitatively (excellent, good, moderate, minimal, no improvement) and quantitatively (measurement of the Houndsfield units).

[7] = test system: healthy liver parenchyma; experiment: density enhancement of the healthy liver parenchyma in CT after infusion, patients with liver metastases (Example 16); type: in vivo, human; settings: 0.35 mmol/kg, 0.25 molar solution, individual patients 1-5 (one line per patient), disodium salt
Protocol: Density enhancement of the healthy liver parenchyma 10 and 60 minutes after infusion of a 0.25 molar solution of the gadolinium(III) complex of the 3,6,9-triaza-3,6,9-tris(carboxymethyl)-4-(4-ethoxybenzyl)-undecanedioic acid disodium salt (Gd-EOB-DTPA, described in Example 8c of EP 0405704) in the case of 5 human patients with liver metastases in a dose of 0.35 mmol/kg in Houndsfield units (HU). This dose corresponds to about 16 g of the complex per 70 kg of patient.

[8] = compatibility (overall condition, vital parameters, laboratory analysis of serum and urine) in patients (Example 19); type: in vivo, human
Protocol: Fifteen human patients with known liver metastases were examined in the liver-CT 10 minutes, 60 minutes and (N=5) 120 minutes after intravenous infusion of 0.2, 0.35 or 0.5 mmol/kg of Gd-EOB-DTPA (see Example 16).
Gd-EOB-DTPA ([…]) was administered intravenously in an intravenous drip in the arm vein. The infusion time was 20 minutes for the dosages of 0.2 and 0.35 mmol/kg and 30 minutes for the maximum dose of 0.5 mmol/kg.
The compatibility of Gd-EOB-DTPA was determined by determining the overall condition, the recording of vital parameters and a laboratory analysis of serum and urine parameters.

[9] = test system: liver; settings: dog; cited from earlier work
[10] = test system: liver; settings: monkey; cited from earlier work
[11] = test system: liver; settings: human, dose corresponding to 360 mg of iodine/kg; cited from earlier work
[12] = test system: liver; settings: mouse; cited from earlier work
[13] = 0.2, 0.35 or 0.5 mmol/kg i.v. infusion

CCOc1ccc(CC(CN(CC(=O)[O-])CC(Cc2ccc(OCC)cc2)N(CC(=O)[O-])CC(=O)[O-])N(CC(=O)[O-])CC(=O)[O-])cc1.[Na+].[Na+].[Yb+3] (stereo not drawn) [Example 4e, Ytterbium complex of the disodium salt of 3,6,9-triaza-3,6,9-tris-(carboxymethyl)-4,8-bis-(4-ethoxybenzyl)-undecanedioic acid]
LD50 [1]: approximately 15 mmol/kg of body weight

CCOc1ccc(CC(CN(CCN(CC(=O)[O-])CC(=O)[O-])CC(=O)[O-])N(CC(=O)[O-])CC(=O)[O-])cc1.[Na+].[Na+].[Tb+3] (stereo not drawn) [Tb]
density (HU ± SD), 50 mmol/L [2]: 228 HU
density (HU ± SD), 500 mmol/L [2]: 1760 HU

CCOc1ccc(CC(CN(CCN(CC(=O)[O-])CC(=O)[O-])CC(=O)[O-])N(CC(=O)[O-])CC(=O)[O-])cc1.[Ho+3].[Na+].[Na+] (stereo not drawn) [Ho]
density (HU ± SD), 50 mmol/L [2]: 221 HU
density (HU ± SD), 500 mmol/L [2]: 1890 HU

CCOc1ccc(CC(CN(CCN(CC(=O)[O-])CC(=O)[O-])CC(=O)[O-])N(CC(=O)[O-])CC(=O)[O-])cc1.[Er+3].[Na+].[Na+] (stereo not drawn) [Er]
density (HU ± SD), 50 mmol/L [2]: 254 HU
density (HU ± SD), 500 mmol/L [2]: 1955 HU

O=C(COCCOCCOCC(=O)Nc1c(I)cc(I)c(C(=O)O)c1I)Nc1c(I)cc(I)c(C(=O)O)c1I [iotroxinate]
enhancement in the liver [3]: 15 HU
concentration in the liver (fold), at 5 μg of iodine per ml of plasma [4]: 5 -fold
concentration in the liver (fold), at 50 μg of iodine/ml [4]: ~2 -fold
concentration in the liver versus plasma, at 500 μg of iodine/ml [4]: considerably lower than in the plasma
excreted via the bile ducts [5]: about 90%

CCOc1ccc(CC(CN(CCN(CC(=O)[O-])CC(=O)[O-])CC(=O)[O-])N(CC(=O)[O-])CC(=O)[O-])cc1.[Gd+3].[Na+].[Na+] (stereo not drawn) [Gd-EOB-DTPA, gadolinium(III) complex of the 3,6,9-triaza-3,6,9-tris(carboxymethyl)-4-(4-ethoxybenzyl)-undecanedioic acid disodium salt]
density (HU ± SD), 50 mmol/L [2]: 218 HU
density (HU ± SD), 500 mmol/L [2]: 1680 HU
visualization of the metastases, all dose groups ([6]; 0.2, 0.35 and 0.5 mmol/kg): improved
CT density of the healthy liver [6, 13]: dose-dependent increase
CT density of the metastases [6, 13]: unchanged
visualization of the metastases, two upper dose groups ([6]; 0.35 and 0.5 mmol/kg): excellent
visualization of the gallbladder and the bile ducts ([6]; after i.v. infusion): possible
additional metastases discovered, on the average ([6]; maximum dose (0.5 mmol/kg)): two
average size of the smallest metastases found ([6]; maximum dose, decreased from 20.3 mm): 16.6 mm
diameter of additional lesion detected ([6]; one patient, left lobe of the liver, previously not found): 7 mm
summary as liver or gallbladder contrast medium for CT ([6]; summary statement): well-tolerated and effective
Density enhancement of the healthy liver parenchyma, 10 minutes p. inf. ([7]; 10 minutes after infusion): 19 HU and 12 HU and 10 HU and 18 HU and 15 HU
Density enhancement of the healthy liver parenchyma, 60 minutes p. inf. ([7]; 60 minutes after infusion): 26 HU and 25 HU and 17 HU and 32 HU
other side effects ([8]; 0.2, 0.35 or 0.5 mmol/kg): nausea and a sensation of pressure in the epigastric region
general compatibility ([8]; 0.2, 0.35 or 0.5 mmol/kg i.v. infusion, 15 patients): good
mild or moderate side effects observed (number) ([8]; 0.2, 0.35 or 0.5 mmol/kg, 15 patients): four
burning sensation at the infusion site or retrograde therefrom (cases) ([8]; persisted for a few seconds or minutes): two
slight increases of aspartate transferase and alaninamino transferase (patients) ([8]; probably caused by the liver metastases): three
evaluation of the laboratory parameters ([8]; serum and urine parameters): no precise trend

CCOc1ccc(CC(CN(CCN(CC(=O)[O-])CC(=O)[O-])CC(=O)[O-])N(CC(=O)[O-])CC(=O)[O-])cc1.[Dy+3].[Na+].[Na+] (stereo not drawn) [Dy]
density (HU ± SD), 50 mmol/L [2]: 226 HU
density (HU ± SD), 500 mmol/L [2]: 1840 HU

CNC(=O)c1c(I)c(NC(=O)COCC(=O)N(C)c2c(I)cc(I)c(C(=O)O)c2I)c(I)c(C(=O)O)c1I [SH L 433]
enhancement of the liver [9]: > 40 HU
enhancement of the liver [10]: > 40 HU
enhancement of the liver [11]: < 10 HU
enhancement of the liver [12]: > 40 HU

O=C(COCC(=O)Nc1c(I)cc(I)c(C(=O)O)c1I)Nc1c(I)cc(I)c(C(=O)O)c1I [ioglycamate]
concentration in the liver (fold), at 5 μg of iodine per ml of plasma [4]: 5 -fold
concentration in the liver (fold), at 50 μg of iodine/ml [4]: ~2 -fold
concentration in the liver versus plasma, at 500 μg of iodine/ml [4]: considerably lower than in the plasma

CCOc1ccc(CC(CN(CCN(CC(=O)[O-])CC(=O)[O-])CC(=O)[O-])N(CC(=O)[O-])CC(=O)[O-])cc1.[Na+].[Na+].[Yb+3] (stereo not drawn) [Yb, Ytterbium complex of the disodium salt of 3,6,9-triaza-3,6,9-tris-(carboxymethyl)-4-(4-ethoxybenzyl)-undecanedioic acid]
density (HU ± SD), 50 mmol/L [2]: 252 HU
density (HU ± SD), 500 mmol/L [2]: 1980 HU

From patent US5853699A, “Use of tetra azacycle complexes as x-ray diagnostic agents for the liver and gallbladder” (priority 1995, dated 1998)
